Activity calls are given as the source filed them. The rule behind the calls is not given here. Square brackets hold non-standard residues; d marks the D form. Peptide text beside a SMILES is read from it. Asu = N[C@@H](CCCCCC(=O)O)C(=O)O

The results in this text go back to ChEMBL document CHEMBL3217631, “Potent sirtuin inhibition bestowed by l-2-amino-7-carboxamidoheptanoic acid (l-ACAH), a N-acetyl-lysine analog” (Medchemcomm, 2011).

Assay [1] addresses T1, NAD-dependent protein deacetylase sirtuin-1 (Homo sapiens, UniProt Q96EB6).
T1 sequence (Q96EB6 whole entry): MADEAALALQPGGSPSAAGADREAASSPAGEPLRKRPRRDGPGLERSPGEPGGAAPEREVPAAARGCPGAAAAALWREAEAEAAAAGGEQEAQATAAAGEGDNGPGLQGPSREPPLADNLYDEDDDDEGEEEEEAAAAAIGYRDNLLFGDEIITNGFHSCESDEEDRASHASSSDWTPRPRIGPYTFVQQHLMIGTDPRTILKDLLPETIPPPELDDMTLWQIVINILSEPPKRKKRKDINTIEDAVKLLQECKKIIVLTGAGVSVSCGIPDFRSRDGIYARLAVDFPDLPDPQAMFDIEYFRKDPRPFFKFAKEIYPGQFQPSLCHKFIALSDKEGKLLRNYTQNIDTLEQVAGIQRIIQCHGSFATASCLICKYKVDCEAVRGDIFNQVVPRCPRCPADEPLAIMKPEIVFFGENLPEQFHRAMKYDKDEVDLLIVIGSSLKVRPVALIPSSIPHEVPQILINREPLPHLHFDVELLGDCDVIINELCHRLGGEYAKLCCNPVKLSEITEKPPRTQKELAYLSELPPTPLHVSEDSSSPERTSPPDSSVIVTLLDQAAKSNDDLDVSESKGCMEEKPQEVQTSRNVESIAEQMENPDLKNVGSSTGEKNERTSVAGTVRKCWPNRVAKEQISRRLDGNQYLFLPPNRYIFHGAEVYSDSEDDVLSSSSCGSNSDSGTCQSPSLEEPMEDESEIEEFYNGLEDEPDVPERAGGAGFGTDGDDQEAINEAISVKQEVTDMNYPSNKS
The assay is described as follows: Inhibition of lysine deacetylase activity of human full length GST-tagged SIRT1 expressed in Escherichia coli using H2N-HK-AcK-LM-COOH as substrate incubated with enzyme for 5 mins by reverse-phase HPLC analysis.

Assay [2] addresses T1, NAD-dependent protein deacetylase sirtuin-1. The assay is described as follows: Competitive inhibition of human full length GST-tagged SIRT1 expressed in Escherichia coli using H2N-HK-AcK-LM-COOH as substrate assessed as enzymatic deacetylation product formation incubated with enzyme for 5 mins by double reciprocal plot analysis.
The target in assay [3] is T2, NAD-dependent protein deacetylase sirtuin-1 (Homo sapiens) (UniProt Q96EB6).
T2 sequence (whole entry): T1 sequence (Q96EB6 whole entry)
The assay is described as follows: Time-dependent inhibition of human full length GST-tagged SIRT1 expressed in Escherichia coli using H2N-HK-AcK-LM-COOH as substrate assessed as enzymatic deacetylation product formation at 5 to 10 uM by reverse-phase HPLC analysis.

Assay [4] deals with T2, NAD-dependent protein deacetylase sirtuin-1 (Homo sapiens). Put plainly: Irreversible inhibition of human full length GST-tagged SIRT1 expressed in Escherichia coli using H2N-HK-AcK-LM-COOH as substrate assessed as recovery of enzyme activity at 150 uM preincubated for 30 mins followed by rapid dilution of preformed enzyme-inhibitor complex measured after 2 to 30 mins by reverse-phase HPLC analysis.

The target is the same in assay [5]. Put plainly: Mechanism based inhibition of human full length GST-tagged SIRT1 expressed in Escherichia coli assessed as longer-lived stabilized catalytic intermediate formation at 0.4 mM after 30 mins by MALDI-MS analysis in presence of NAD+.
Assay [6] shares this target. Put plainly: Mechanism based inhibition of human full length GST-tagged SIRT1 expressed in Escherichia coli assessed as longer-lived stabilized catalytic intermediate 2 formation at 0.4 mM after 30 mins by MALDI-MS analysis in presence of NAD+ and 20% (v/v) methanol.
For assay [7] the target is unchanged. Put plainly: Mechanism based inhibition of human full length GST-tagged SIRT1 expressed in Escherichia coli assessed as longer-lived stabilized catalytic intermediate 3 formation at 0.4 mM after 30 mins by MALDI-MS analysis in presence of NAD+ and 63% (v/v) H218O.
For assay [8], the target named is T3, NAD-dependent protein deacetylase (Thermotoga maritima (strain ATCC 43589 / MSB8 / DSM 3109 / JCM 10099)) (UniProt Q9WYW0).
T3 sequence (whole entry): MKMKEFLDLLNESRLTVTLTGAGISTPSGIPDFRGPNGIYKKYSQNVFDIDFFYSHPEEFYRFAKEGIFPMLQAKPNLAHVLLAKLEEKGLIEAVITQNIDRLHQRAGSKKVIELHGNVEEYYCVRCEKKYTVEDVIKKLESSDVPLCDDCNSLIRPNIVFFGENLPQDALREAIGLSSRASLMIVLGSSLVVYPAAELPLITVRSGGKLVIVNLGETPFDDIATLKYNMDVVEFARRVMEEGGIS
Put plainly: Mechanism based inhibition of Thermotoga maritima Sir2Tm assessed as longer-lived stabilized catalytic intermediate formation at 0.4 mM after 30 mins by MALDI-MS analysis in presence of NAD+.

Assay [9] has as its target T2, NAD-dependent protein deacetylase sirtuin-1 (Homo sapiens). Put plainly: Inhibition of lysine deacetylase activity of human full length GST-tagged SIRT1 expressed in Escherichia coli using H2N-HK-AcK-LM-COOH as substrate at 500 uM incubated with enzyme for 5 mins by reverse-phase HPLC analysis.
The target is the same in assay [10]. Put plainly: Inhibition of SIRT1 in human HCT116 cells assessed as enhancement of p53 acetylation at K382 position after 8 hrs by Western blot analysis. Conditions: HCT-116. In kind it is cell-based.
The target is the same in assay [11]. The assay is described as follows: Inhibition of SIRT1 in human HCT116 cells assessed as enhancement of p53 acetylation at K382 position at 5 uM after 8 hrs by Western blot analysis. Type of assay: cell-based. Conditions: HCT-116.
The target is the same in assay [12]. Put plainly: Inhibition of SIRT1 in human HCT116 cells assessed as enhancement of p53 acetylation at K382 position at 50 uM after 8 hrs by Western blot analysis. Type of assay: cell-based. Conditions: HCT-116. (In general: Immunoblotting shows a protein as a band on a membrane.)
For assay [13], the target named is T4, Histone deacetylase 8 (Homo sapiens) (UniProt Q9BY41).
T4 sequence (whole entry): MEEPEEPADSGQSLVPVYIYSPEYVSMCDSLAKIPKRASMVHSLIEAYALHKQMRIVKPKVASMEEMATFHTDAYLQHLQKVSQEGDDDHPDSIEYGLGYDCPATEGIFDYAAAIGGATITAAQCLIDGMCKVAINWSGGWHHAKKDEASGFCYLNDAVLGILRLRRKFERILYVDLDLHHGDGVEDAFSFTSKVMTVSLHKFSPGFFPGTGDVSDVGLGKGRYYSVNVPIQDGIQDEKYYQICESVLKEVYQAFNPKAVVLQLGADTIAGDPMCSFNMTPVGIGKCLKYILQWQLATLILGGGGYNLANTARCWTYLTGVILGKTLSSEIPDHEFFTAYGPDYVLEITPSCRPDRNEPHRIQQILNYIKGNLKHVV
Put plainly: Inhibition of human full length HDAC8 using CH3CONH-RH-AcK-(AcK)-CONH2 as substrate assessed as enzymatic deacetylation product formation measured at 500 uM after 1 hr by HPLC analysis.

In the case of `NC(=O)CCCCC[C@H](NC(=O)OCc1ccccc1)C(=O)Nc1ccccc1`, the IC50 (in general, the midpoint of a concentration-inhibition curve) in assay [1] is above 1000 µM.
Consider `CSCC[C@H](NC(=O)[C@H](CC(C)C)NC(=O)[C@H](CCCCCC(N)=O)NC(=O)[C@H](CCCCN)NC(=O)[C@H](Cc1cnc[nH]1)NC(C)=O)C(N)=O` (Ac-HK[Asu](NH2)LM-NH2), for which the IC50 in assay [1] is 11.7 µM. The Ki (in general, the equilibrium dissociation constant of an inhibitor or competing ligand from its target) in [2] turned out to be 2.6 µM. Moreover, the inhibition entry in [3], in assay [5], in assay [6], in [7] and in assay [8] was “Active” in each case. Also, the outcome in assay [4] was inactive.
Regarding `COC(=O)CCCCC[C@H](NC(=O)[C@H](CCCCN)NC(=O)[C@H](Cc1cnc[nH]1)NC(C)=O)C(=O)N[C@@H](CC(C)C)C(=O)N[C@@H](CCSC)C(N)=O` (Ac-HK[Asu](OMe)LM-NH2), the inhibition (commonly the drop in the measured response relative to a control, in per cent) in assay [9] is “inactive”.
Turning to `CC(=O)NCCCC[C@H](NC(=O)[C@H](CCCCCC(N)=O)NC(=O)[C@H](CCCCNC(C)=O)NC(C)=O)C(N)=O` (Ac-Lys(Ac)-[Asu](NH2)-Lys(Ac)-NH2), the Activity entry in [10] was “Dose-dependent effect”. Further, the result in assay [11] was inactive. Further, the result in assay [12] was Active.
In the case of `CC(=O)NCCCC[C@H](NC(=O)[C@H](Cc1cnc[nH]1)NC(=O)[C@H](CCCNC(=N)N)NC(C)=O)C(=O)N[C@@H](CCCCCC(N)=O)C(N)=O` (Ac-RHK(Ac)[Asu](NH2)-NH2), the inhibition in [13] is 12%.
